ChEMBL document CHEMBL5303573, “Mapping human microbiome drug metabolism by gut bacteria and their genes” (Nature, 2019)

Experiments:
[1] = The drug is tested on Bifidobacterium breve strain: DSM20213 for biotransformation. The drug concentrations were measured before and after a 12-h incubation by liquid-chromatography-coupled mass spectrometry (LC–MS); details: 2 µM
[2] = The drug is tested on Bifidobacterium longum subsp. Infantis strain: CCUG52486 for biotransformation. The drug concentrations were measured before and after a 12-h incubation by liquid-chromatography-coupled mass spectrometry (LC–MS); details: 2 µM
[3] = The drug is tested on Collinsella aerofaciens strain: ATCC25986 for biotransformation. The drug concentrations were measured before and after a 12-h incubation by liquid-chromatography-coupled mass spectrometry (LC–MS); details: 2 µM
[4] = The drug is tested on Bacteroides dorei strain: DSM17855 for biotransformation. The drug concentrations were measured before and after a 12-h incubation by liquid-chromatography-coupled mass spectrometry (LC–MS); details: phocaeicola dorei, 2 µM
[5] = The drug is tested on Bacteroides finegoldii strain: DSM17565 for biotransformation. The drug concentrations were measured before and after a 12-h incubation by liquid-chromatography-coupled mass spectrometry (LC–MS); details: 2 µM
[6] = The drug is tested on Bacteroides fragilis strain: HMW615 for biotransformation. The drug concentrations were measured before and after a 12-h incubation by liquid-chromatography-coupled mass spectrometry (LC–MS); details: 2 µM
[7] = The drug is tested on Bacteroides uniformis strain: ATCC8492 for biotransformation. The drug concentrations were measured before and after a 12-h incubation by liquid-chromatography-coupled mass spectrometry (LC–MS); details: 2 µM
[8] = The drug is tested on Anaerococcus hydrogenalis strain: DSM7454 for biotransformation. The drug concentrations were measured before and after a 12-h incubation by liquid-chromatography-coupled mass spectrometry (LC–MS); details: 2 µM
[9] = The drug is tested on Anaerotruncus colihominis strain: DSM17241 for biotransformation. The drug concentrations were measured before and after a 12-h incubation by liquid-chromatography-coupled mass spectrometry (LC–MS); details: 2 µM
[10] = The drug is tested on Clostridium asparagiforme strain: DSM15981 for biotransformation. The drug concentrations were measured before and after a 12-h incubation by liquid-chromatography-coupled mass spectrometry (LC–MS); format: ADME; design: dose 2 uM, timepoint 0 vs 12 hours; details: enterocloster asparagiformis, 2 µM
[11] = The drug is tested on Coprococcus comes strain: ATCC27758 for biotransformation. The drug concentrations were measured before and after a 12-h incubation by liquid-chromatography-coupled mass spectrometry (LC–MS); format: ADME; design: dose 2 uM, timepoint 0 vs 12 hours; details: 2 µM
[12] = The drug is tested on Dorea formicigenerans strain: ATCC27755 for biotransformation. The drug concentrations were measured before and after a 12-h incubation by liquid-chromatography-coupled mass spectrometry (LC–MS); details: 2 µM
[13] = The drug is tested on Eubacterium hallii strain: DSM3353 for biotransformation. The drug concentrations were measured before and after a 12-h incubation by liquid-chromatography-coupled mass spectrometry (LC–MS); details: anaerobutyricum hallii, 2 µM
[14] = The drug is tested on Eubacterium rectale strain: ATCC33656 for biotransformation. The drug concentrations were measured before and after a 12-h incubation by liquid-chromatography-coupled mass spectrometry (LC–MS); details: agathobacter rectalis, 2 µM
[15] = The drug is tested on Subdoligranulum variabile strain: DSM15176 for biotransformation. The drug concentrations were measured before and after a 12-h incubation by liquid-chromatography-coupled mass spectrometry (LC–MS); details: 2 µM
[16] = The drug is tested on Escherichia coli strain: BW25113 for biotransformation. The drug concentrations were measured before and after a 12-h incubation by liquid-chromatography-coupled mass spectrometry (LC–MS); details: 2 µM
[17] = The drug is tested on Providencia stuartii strain: ATCC25827 for biotransformation. The drug concentrations were measured before and after a 12-h incubation by liquid-chromatography-coupled mass spectrometry (LC–MS); details: 2 µM
[18] = bacteroides fragilis, 12 h, 2 µM
Description: The drug is tested on Bacteroides fragilis strain: 3397 (T10) for biotransformation. The drug concentrations were measured before and after a 12-h incubation by liquid-chromatography-coupled mass spectrometry (LC–MS)

[19] = parabacteroides distasonis, 12 h, 2 µM
Description: The drug is tested on Parabacteroides distasonis strain: ATCC8503 for biotransformation. The drug concentrations were measured before and after a 12-h incubation by liquid-chromatography-coupled mass spectrometry (LC–MS)

[20] = The drug is tested on Bacteroides fragilis strain: HMW610 for biotransformation. The drug concentrations were measured before and after a 12-h incubation by liquid-chromatography-coupled mass spectrometry (LC–MS); details: 2 µM

| Structure (SMILES) | Bacterial Biotransformation [1] | Bacterial Biotransformation [2] | Bacterial Biotransformation [3] | Bacterial Biotransformation [4] | Bacterial Biotransformation [5] | Bacterial Biotransformation [6] | Bacterial Biotransformation [7] | Bacterial Biotransformation [8] | Bacterial Biotransformation [9] | Bacterial Biotransformation [10] | Bacterial Biotransformation [11] | Bacterial Biotransformation [12] | Bacterial Biotransformation [13] | Bacterial Biotransformation [14] | Bacterial Biotransformation [15] | Bacterial Biotransformation [16] | Bacterial Biotransformation [17] | Bacterial Biotransformation [18] | Bacterial Biotransformation [19] | Bacterial Biotransformation [20] |
| --- | --- | --- | --- | --- | --- | --- | --- | --- | --- | --- | --- | --- | --- | --- | --- | --- | --- | --- | --- | --- |
| CCN1CCCC1CNC(=O)c1cc(S(=O)(=O)CC)c(N)cc1OC (configuration not stated) [AMISULPRIDE] | Compound NOT metabolized | Compound NOT metabolized | Compound NOT metabolized | Compound NOT metabolized | Compound NOT metabolized | Compound NOT metabolized | Compound NOT metabolized | Compound NOT metabolized | Compound NOT metabolized | Compound NOT metabolized | Compound NOT metabolized | Compound NOT metabolized | Compound NOT metabolized | Compound NOT metabolized | Compound NOT metabolized | Compound NOT metabolized | Compound NOT metabolized | Compound NOT metabolized | Compound NOT metabolized |  |
| OC(CCN1CCCCC1)(c1ccccc1)C1CC2C=CC1C2 (configuration not stated) [BIPERIDEN] | Compound NOT metabolized | Compound NOT metabolized | Compound NOT metabolized | Compound NOT metabolized | Compound NOT metabolized | Compound NOT metabolized | Compound NOT metabolized | Compound NOT metabolized | Compound NOT metabolized | Compound NOT metabolized | Compound NOT metabolized | Compound NOT metabolized | Compound NOT metabolized | Compound NOT metabolized | Compound NOT metabolized | Compound NOT metabolized | Compound NOT metabolized | Compound NOT metabolized |  |  |
| CCN(CC)CCOCCOC(=O)C1(c2ccccc2)CCCC1.O=C(O)CC(O)(CC(=O)O)C(=O)O [CARBETAPENTANE CITRATE] | Compound metabolized | Compound metabolized | Compound metabolized | Compound metabolized | Compound metabolized | Compound NOT metabolized | Compound metabolized | Compound metabolized | Compound metabolized | Compound metabolized | Compound metabolized | Compound metabolized | Compound metabolized | Compound NOT metabolized | Compound metabolized | Compound metabolized | Compound metabolized | Compound metabolized | Compound metabolized |  |
| CC(NC(C)(C)C)C(=O)c1cccc(Cl)c1 (configuration not stated) [BUPROPION] | Compound NOT metabolized |  |  | Compound NOT metabolized | Compound NOT metabolized | Compound NOT metabolized | Compound NOT metabolized | Compound NOT metabolized | Compound NOT metabolized | Compound NOT metabolized | Compound NOT metabolized | Compound NOT metabolized | Compound NOT metabolized |  | Compound NOT metabolized | Compound metabolized |  | Compound NOT metabolized | Compound NOT metabolized | Compound NOT metabolized |
| CC(=O)O[C@]1(C(C)=O)CC[C@H]2[C@@H]3C=C(Cl)C4=CC(=O)[C@@H]5C[C@@H]5[C@]4(C)[C@H]3CC[C@@]21C [CYPROTERONE ACETATE] | Compound NOT metabolized | Compound NOT metabolized | Compound metabolized | Compound metabolized | Compound NOT metabolized | Compound metabolized | Compound metabolized | Compound NOT metabolized | Compound metabolized | Compound NOT metabolized | Compound NOT metabolized | Compound NOT metabolized | Compound NOT metabolized |  | Compound NOT metabolized | Compound metabolized |  |  | Compound metabolized | Compound metabolized |
| COC(=O)[C@H](c1ccccc1Cl)N1CCc2sccc2C1.O=S(=O)(O)O [CLOPIDOGREL BISULFATE] | Compound NOT metabolized | Compound NOT metabolized | Compound NOT metabolized | Compound metabolized |  | Compound metabolized | Compound metabolized | Compound NOT metabolized | Compound NOT metabolized | Compound NOT metabolized | Compound NOT metabolized | Compound NOT metabolized | Compound NOT metabolized |  | Compound NOT metabolized | Compound NOT metabolized | Compound NOT metabolized | Compound metabolized | Compound metabolized | Compound metabolized |
| CC(C(=O)O)c1ccc2c(c1)Cc1cccnc1O2 (configuration not stated) [PRANOPROFEN] | Compound metabolized | Compound metabolized | Compound NOT metabolized | Compound metabolized | Compound metabolized | Compound metabolized | Compound metabolized | Compound NOT metabolized | Compound metabolized | Compound NOT metabolized | Compound metabolized | Compound metabolized | Compound metabolized |  | Compound NOT metabolized | Compound metabolized | Compound metabolized | Compound metabolized | Compound metabolized | Compound metabolized |
| CN1CCC[C@@H]1CCO[C@](C)(c1ccccc1)c1ccc(Cl)cc1.O=C(O)/C=C/C(=O)O [CLEMASTINE FUMARATE] | Compound NOT metabolized | Compound NOT metabolized | Compound NOT metabolized | Compound metabolized |  | Compound NOT metabolized | Compound metabolized | Compound NOT metabolized |  | Compound NOT metabolized |  | Compound NOT metabolized | Compound NOT metabolized |  | Compound NOT metabolized | Compound metabolized | Compound NOT metabolized | Compound metabolized | Compound metabolized | Compound metabolized |
